Earlier results on one compound are cited in patent publication US20230313389A1, “APPARATUS AND METHOD FOR THE ELECTROLYTIC PRODUCTION OF HYPOCHLOROUS ACID” (GROUPE OXWELL INC., priority 2020, published 2023).

SMILES strings stand for the structures.

The test system of data set [1] is viruses, including coronaviruses. The note with it: variety of viruses.
The conditions of data set [2]: as disinfectant.
For data set [3] the following is noted: under ideal conditions.

For `OCl` [HOCl, Hypochlorous acid], the “time to inactivate viruses” value in data set [1] is recorded as “less than 1 minute”. Besides, in data set [2], the “effectiveness relative to chlorine in the form of ClO-” value is 100 times. Further, in data set [3], the “shelf life (time HOCl is effective)” value is recorded as “up to 2 weeks”.
